# The source made the active and inactive calls. The rule behind the calls is not given here.
# Assays:
# Format in all cases: functional
# Candida albicans = test: Antimicrobial activity against Candida albicans 54 at 200 ug/spot after 18 hrs by agar diffusion method
# Staphylococcus aureus [1] = test: Antibacterial activity against methicillin-resistant Staphylococcus aureus 310 at 200 ug/spot after 18 hrs by agar diffusion method
# Enterococcus faecium = test: Antibacterial activity against vancomycin-resistant Enterococcus faecium 379 at 200 ug/spot after 18 hrs by […]
# Escherichia coli = test: Antibacterial activity against permeability mutant Escherichia coli 389 at 200 ug/spot after 18 hrs by agar diffusion method
# Staphylococcus aureus [2] = test: Antibacterial activity against methicillin-sensitive Staphylococcus aureus 375 at 200 ug/spot after 18 hrs by agar diffusion method
SMILES,inhibition zone (IZ) (Candida albicans) [mm],inhibition zone (IZ) (Staphylococcus aureus [1]) [mm],inhibition zone (IZ) (Enterococcus faecium) [mm],inhibition zone (IZ) (Escherichia coli) [mm],inhibition zone (IZ) (Staphylococcus aureus [2]) [mm],Activity (Candida albicans),Activity (Staphylococcus aureus [1]),Activity (Escherichia coli),Activity (Staphylococcus aureus [2]),Activity (Enterococcus faecium)
C[C@@](Cl)(/C=C/Br)[C@H]1CO[C@@](C)(O)[C@@H](Br)C1,8,–,–,–,–,–,–,–,–,–
CCC[C@@H](OC(C)=O)C1=C(Br)/C(=C\Br)OC1=O [ACETOXYFIMBROLIDE],17,25,16,9,24,–,–,–,–,–
CC(C)(Br)[C@@H](Cl)C[C@H](Br)[C@](C)(Cl)/C=C/Br [ANVERENE],–,–,8,–,–,inactive,inactive,inactive,inactive,–
CCCCC1=C(Br)/C(=C\Br)OC1=O [FIMBROLIDE],–,7,–,–,7,inactive,–,inactive,–,inactive
CCC[C@@H](O)C1=C(Br)/C(=C\Br)OC1=O [HYDROXYFIMBROLIDE],25,23,14,9,23,–,–,–,–,–
CC1=CC(=O)C=C(C/C=C(\C)CC/C=C(\C)CC/C=C(\C)CC/C=C(\C)C(=O)O)C1=O [MENZOQUINONE],–,8,7,–,6,–,–,–,–,–

# Reference: ChEMBL document CHEMBL1148195, “Chemical investigation of predator-deterred macroalgae from the Antarctic peninsula” (2004)
